Results on 6 compounds are retold here after PMC11359332, “Characterization of Neonicotinoid Metabolites by Cytochrome P450-Mediated Metabolism in Poultry” (Toxics, 2024).

The subject of data set [1] is nicotinic acetylcholine receptors. The conditions noted are these: cited from earlier work.
The next data set concerns fish leukocytes. Further details: method as in PMID 38594566. Particulars: compared with parent substances; cited from earlier work.
In data set [2] the test system is chicken liver microsomes (CYP). Briefly: In vitro CYP metabolism of neonicotinoids, chicken liver microsomes, metabolites quantified by LC/MS/MS. It counts as in vitro ADME, chicken (Gallus domesticus). As for the experimental part: (§1) All experimental protocols and animal-handling procedures were performed following the guidelines for animal experiments and approved by the Animal Ethics Research Committee of the Faculty of Veterinary Medicine, […] University, Bangkok, Thailand (Approval number: […]-026). Liver samples of chickens (Gallus domesticus, n = 5), ducks (Anas platyrhynchos, n = 5), […] domesticus, n = 3), quails (Coturnix coturnix, n = 5), and rats (Rattus norvegicus, n = 3) were obtained from the previous study. The liver microsomal fractions used in this study were prepared by the method of Omura and Sato [28] with slight modifications. Briefly, liver sample was homogenized with 0.1 M potassium phosphate buffer (KPB, pH 7.4) and centrifuged at 9000× g at 4 °C for 20 min. The supernatant was collected and centrifuged twice at 105,000× g at 4 °C for 60 min. Microsomal pellets were homogenized with 0.1 M KPB and measured for protein concentrations using the BCA protein assay kit (Thermo Fisher Scientific, Rockford, IL, USA) before being frozen using liquid nitrogen, for storage at -80 °C until analysis. The assay of neonicotinoid metabolism using liver microsome was modified from that of a previous study. Since we had insufficient liver samples to produce the microsomes of geese and quails, the substrates of imidacloprid and clothianidin were not applied for those microsome reactions. However, microsomes of chicken, ducks, and rats were used for all substrate reactions. […] Then, the reaction was initiated by adding a mixture of G6PDH (2 IU/mL) and β-NADPH (0.5 mM), and continuously incubating for 30 min. Then, 0.1% formic acid in acetonitrile was added to stop the reaction. After that, the reaction sample was placed on ice for 15 min before centrifugation at 12,000 g for 10 min. The supernatant (100 μL) was collected and then spiked with neonicotinoid internal standard mixtures (50 μL), then evaporated using a centrifugal evaporator (CVE-200D with UT-2000, EYELA, Tokyo, Japan). The dried sample was re-dissolved with 20% methanol (v/v) and transferred into vials for chemical analysis. […] For all analyses, mobile phase A consisted of 0.1% formic acid + 10 mM ammonium acetate in distilled water and mobile phase B consisted of 0.1% formic acid + 10 mM ammonium acetate in 100% MeOH. The injection volume of 5 μL, the flow rate of 0.40 mL/min with gradient elution, and a column temperature of 45 °C were used for all experiments. The ion signals were acquired with multiple-reaction monitoring (MRM) in positive ionization mode. In the current study, the liver microsome was spiked with deuterium-labelled internal standards (ISs) of the target neonicotinoids before the extraction and purification processes. […] The calibration curves were created using 10-point calibration standards ranging from 0.05 to 20 ng/mL. […] The accuracy of the current analytical method was validated and determined using matrix-spiked neonicotinoid standards at two concentrations, 1 ng/mL and 10 ng/mL. The thirteen target compounds were detected with recovery rates ranging from 87 to 101% at 1 ng/mL, and 86 to 116% at 10 ng/mL. […] In the current study, all the assays were performed in duplicates and the negative controls (the reaction mixture without substrate) were prepared for each sample. […] Statistical analyses were conducted using the JMP […] software (SAS Institute, Carry, NC, USA). One-way ANOVA with post-hoc Tukey-Kramer multiple comparison test was used to compare the Vmax/Km ratio among species. All results were presented as the mean ± standard deviation (SD).
For orientation: Microsomes from liver hold many membrane-bound enzymes, among them those of drug oxidation.

For data set [3], the system named is duck liver microsomes (CYP). As to the kind of experiment: In vitro CYP metabolism of neonicotinoids, duck liver microsomes, metabolites quantified by LC/MS/MS. In kind it is in vitro ADME, duck (Anas platyrhynchos). As for the experimental part: as §1
The test system of data set [4] is rat liver microsomes (CYP). Briefly: In vitro CYP metabolism of neonicotinoids, rat liver microsomes, metabolites quantified by LC/MS/MS. It counts as in vitro ADME. As for the experimental part: as §1
Data set [5] concerns liver microsomes from various species. Briefly: Metabolite screening by LC/Q-TOF in reaction mixtures using liver microsomes from various species. In kind it is in vitro ADME, chicken, duck, goose, quail, rat. The protocol: The assay of neonicotinoid metabolism using liver microsome was modified from that of a previous study. Since we had insufficient liver samples to produce the microsomes of geese and quails, the substrates of imidacloprid and clothianidin were not applied for those microsome reactions. However, microsomes of chicken, ducks, and rats were used for all substrate reactions. […] Then, the reaction was initiated by adding a mixture of G6PDH (2 IU/mL) and β-NADPH (0.5 mM), and continuously incubating for 30 min. Then, 0.1% formic acid in acetonitrile was added to stop the reaction. After that, the reaction sample was placed on ice for 15 min before centrifugation at 12,000 g for 10 min. The supernatant (100 μL) was collected and then spiked with neonicotinoid internal standard mixtures (50 μL), then evaporated using a centrifugal evaporator (CVE-200D with UT-2000, EYELA, Tokyo, Japan). The dried sample was re-dissolved with 20% methanol (v/v) and transferred into vials for chemical analysis.
A liquid chromatograph quadrupole time-of-flight (6546 LC/Q-TOF; Agilent Technologies, Santa Clara, CA, USA) operated with a 1.8 μm Eclipse Plus C18 RRHD analytical column (2.1 × 150 mm; Agilent Technologies, CA, USA) at a flow rate of 0.25 mL/min was used in the screening test to search for chromatographic peaks with the exact molecular mass of the possible neonicotinoid metabolites (Table S3). The mobile phases were 10 mM ammonium formate in water (A) and 10 mM ammonium formate in MeOH (B). The gradient elution of mobile phase B was set as follows: 2% (0–1 min), 100% (1–30 min), continued 100% (30–39 min), and a 4 min post-run at 2%. An injection volume was 5 μL and the column temperature was maintained at 45 °C. The expected formulas of potential metabolites of the four neonicotinoids were derived from previous publications on neonicotinoid metabolites in environment samples [29, 30] and in animals.
Several neonicotinoid metabolites were formed in our current in vitro biotransformation assays (Table 1).

Data set [6] concerns quail liver microsomes (CYP). Briefly: In vitro CYP metabolism of neonicotinoids, quail liver microsomes, metabolites quantified by LC/MS/MS. In kind it is in vitro ADME, quail (Coturnix coturnix). As for the experimental part:
(§2) All experimental protocols and animal-handling procedures were performed following the guidelines for animal experiments and approved by the Animal Ethics Research Committee of the Faculty of Veterinary Medicine, […] University, Bangkok, Thailand (Approval number: […]-026). Liver samples of chickens (Gallus domesticus, n = 5), ducks (Anas platyrhynchos, n = 5), […] domesticus, n = 3), quails (Coturnix coturnix, n = 5), and rats (Rattus norvegicus, n = 3) were obtained from the previous study. The liver microsomal fractions used in this study were prepared by the method of Omura and Sato [28] with slight modifications. Briefly, liver sample was homogenized with 0.1 M potassium phosphate buffer (KPB, pH 7.4) and centrifuged at 9000× g at 4 °C for 20 min. The supernatant was collected and centrifuged twice at 105,000× g at 4 °C for 60 min. Microsomal pellets were homogenized with 0.1 M KPB and measured for protein concentrations using the BCA protein assay kit (Thermo Fisher Scientific, Rockford, IL, USA) before being frozen using liquid nitrogen, for storage at -80 °C until analysis. […] The accuracy of the current analytical method was validated and determined using matrix-spiked neonicotinoid standards at two concentrations, 1 ng/mL and 10 ng/mL. The thirteen target compounds were detected with recovery rates ranging from 87 to 101% at 1 ng/mL, and 86 to 116% at 10 ng/mL. […]

The test system of data set [7] is goose liver microsomes (CYP). As to the kind of experiment: In vitro CYP metabolism of neonicotinoids, goose liver microsomes, metabolites quantified by LC/MS/MS. It counts as in vitro ADME, goose (Anser domesticus). As for the experimental part: as §2
The mark [8] stands for this setting: imidacloprid to 4OH-imidacloprid.
The mark [9] stands for this setting: imidacloprid to 5OH-imidacloprid.
Where [10] appears, read: imidacloprid to dn-imidacloprid.
Where [11] appears, read: imidacloprid to imidacloprid-olefin.
[12] abbreviates: clothianidin to clothianidin-urea.
The mark [13] stands for this setting: clothianidin to dm-clothianidin.
[14] abbreviates: clothianidin to dn-clothianidin.

On to `NC1=NCCN1Cc1ccc(Cl)nc1` [dn-imidacloprid, desnitro-imidacloprid], for which, in data set [1] (compared with imidacloprid), the “Affinity for nicotinic acetylcholine receptors” value was “higher affinity for nicotinic acetylcholine receptors than imidacloprid”. Besides, the “Cytotoxicity potency on fish leukocytes” value in the data set on fish leukocytes is recorded as “higher cytotoxicity potency on fish leukocytes than their parent substances”.

Regarding `O=[N+]([O-])NC1=NCCN1Cc1ccc(Cl)nc1` [Imidacloprid], the Vmax is listed as 0.5 ± 0.0 pmol/min/mg protein in data set [2] (setting [8]); 0.5 ± 0.0 pmol/min/mg protein in data set [2] (setting [9]); 1.0 ± 0.7 pmol/min/mg protein in data set [2] (setting [10]); 0.2 ± 0.0 pmol/min/mg protein in data set [2] (setting [11]); 0.1 ± 0.0 pmol/min/mg protein in data set [3] (setting [8]); 0.1 ± 0.0 pmol/min/mg protein in data set [3] (setting [9]). Also, the Vmax in data set [3] (setting [10]) turned out to be 0.2 ± 0.0 pmol/min/mg protein; in data set [3] (setting [11]), 0.03 ± 0.0 pmol/min/mg protein; in data set [4] (setting [8]), 0.1 ± 0.0 pmol/min/mg protein; in data set [4] (setting [9]), 0.1 ± 0.0 pmol/min/mg protein; in data set [4] (setting [10]), 0.1 ± 0.0 pmol/min/mg protein.

On to `CN/C(=N\[N+](=O)[O-])NCc1cnc(Cl)s1` [Clothianidin], for which the Vmax stood at 0.008 ± 0.001 pmol/min/mg protein in data set [2] (setting [12]); 4.4 ± 1.2 pmol/min/mg protein in data set [2] (setting [13]); 0.1 ± 0.0 pmol/min/mg protein in data set [2] (setting [14]); 0.005 ± 0.001 pmol/min/mg protein in data set [3] (setting [12]); 2.9 ± 1.3 pmol/min/mg protein in data set [3] (setting [13]); 0.3 ± 0.1 pmol/min/mg protein in data set [3] (setting [14]). Also, the values for the Vmax in data set [4] (setting [12]) and in data set [4] (setting [14]) were 0.012 ± 0.002 pmol/min/mg protein and 0.2 ± 0.0 pmol/min/mg protein, respectively. In addition, the “Affinity to nicotinic acetylcholine receptors” value in data set [1] was “high affinity to nicotinic acetylcholine receptors”. In data set [5] (substrate clothianidin 800 µM, goose and quail not analyzed), the “Species in which metabolite clothianidin-urea was identified” value is “Chicken, Duck, Rat”.

On to `NC(=O)N=C1SCCN1Cc1ccc(Cl)nc1` [thiacloprid-amide], for which the “Cytotoxicity potency on fish leukocytes” value in the data set with fish leukocytes was “higher cytotoxicity potency on fish leukocytes than their parent substances”.

For the compound `C/C(=N\C#N)N(C)Cc1ccc(Cl)nc1` [Acetamiprid], the Vmax in data set [6] (acetamiprid to dm-acetamiprid) is recorded as 0.3 ± 0.1 pmol/min/mg protein; in data set [2] (acetamiprid to dm-acetamiprid), 1.2 ± 0.0 pmol/min/mg protein; in data set [3] (acetamiprid to dm-acetamiprid), 0.4 ± 0.0 pmol/min/mg protein; in data set [7] (acetamiprid to dm-acetamiprid) it was 1.3 ± 0.2 pmol/min/mg protein; in data set [4] (acetamiprid to dm-acetamiprid) it was 0.1 ± 0.0 pmol/min/mg protein. For the same compound, the “Species in which metabolite N-[(6-chloro-3-pyridyl) methyl]-N-methyl acetamidine was identified” value in data set [5] (substrate acetamiprid 800 µM) is “Duck, Goose, Quail, Rat”. Also, the “Species in which metabolite N-desmethyl-acetamiprid was identified” value in data set [5] (substrate acetamiprid 800 µM) was “Chicken, Duck, Goose, Quail, Rat”. Also, in data set [5] (substrate acetamiprid 800 µM), the “Species in which metabolite N-methyl(6-chloro-3-pyridyl) methylamine was identified” value was “Chicken, Duck, Goose, Quail, Rat”.

For the compound `CN1COCN(Cc2cnc(Cl)s2)/C1=N\[N+](=O)[O-]` [Thiamethoxam], the Vmax in data set [6] (thiamethoxam to clothianidin) came out at 0.4 ± 0.1 pmol/min/mg protein; in data set [2] (thiamethoxam to clothianidin), 1.2 ± 0.0 pmol/min/mg protein; in data set [2] (thiamethoxam to dm-clothianidin), 0.01 ± 0.00 pmol/min/mg protein; in data set [3] (thiamethoxam to clothianidin), 0.1 ± 0.0 pmol/min/mg protein; in data set [7] (thiamethoxam to clothianidin), 0.2 ± 0.1 pmol/min/mg protein; in data set [4] (thiamethoxam to clothianidin) it was 0.1 ± 0.0 pmol/min/mg protein. Further, in data set [5] (substrate thiamethoxam 800 µM), the “Species in which metabolite N-desmethyl-thiamethoxam was identified” value was “Chicken, Duck, Goose, Quail, Rat”. The “Species in which metabolite clothianidin was identified” value in data set [5] (substrate thiamethoxam 800 µM) is “Chicken, Duck, Goose, Quail, Rat”. Moreover, in data set [5] (substrate thiamethoxam 800 µM), the “Species in which metabolite clothianidin-urea was identified” value is “Chicken, Duck, Goose, Quail, Rat”. In addition, the “Species in which metabolite dm-clothianidin was identified” value in data set [5] (substrate thiamethoxam 800 µM) was “Chicken”. For the same compound, in data set [5] (substrate thiamethoxam 800 µM), the “Species in which metabolite thiamethoxam-urea was identified” value was “Chicken, Duck, Goose, Quail, Rat”.
